“Also recorded” adds a separate entry of the source.
Tests used:
[1] = target: T1, HLA-A*0201 (Homo sapiens, UniProt P04439, D140Y/D185E/D98H/E176V/E277Q/G131W/G231S/I119V/I121R/I166T/I218V/L300P/L318F/N151K/N90K/P208A/P217A/Q86G/Q94H/R138H/R169H/T345S); type: binding
T1 construct: Soluble MHC was dissolved in PBS containing 0.5 mg/ml bovine γ-globulin; made in house

[2] = test system: splenocytes of WT-vaccinated HLA-A2 tg mice; type: cell-based, mouse; design: key to response compared with WT peptide control, mouse splenocytes: *: Lower response than WT peptide
[3] = test system: CD8+ T cells of HLA-A2+ human donors; type: cell-based
[4] = test system: HLA-A2 transgenic mice; details: mouse, in vivo; for IFN-γ ELISpot response after restimulation with WT peptide: sc

Substance	FP binding score, percentage inhibition of tracer peptide binding, 4h [1] [%]	FP binding score, percentage inhibition of tracer peptide binding, 24h [1] [%]	Mouse splenocytes (ex vivo assay), Average [2]	DC model: IFN-γ-positive CD8+ T cells, Average [3]	rank by T cell activation, DC model [3]	rank by T cell activation, mouse splenocytes [2]	T cell (IFN-γ) response of vaccinated HLA-A2 tg mice, restimulation not specified or both [4]	IFN-γ ELISpot response after restimulation with WT peptide [4]	response compared with WT peptide control, mouse splenocytes [2]
[3-PYRA]ILGFVFT[2-AOC] [G29]	44	38	39	0.12	–	–	–	–	–
[OM-HS][2-AOC]LSTVLGV [N91]	91	87	344	–	–	–	–	–	–
[CSME][2-AOC]LSTVLGV [N169]	89	87	366	0.09	Upper 3	–	–	–	–
FMYSDFHF[CpALA] [F52]	81	78	79	0.13	–	–	–	–	–
[am-phg][CpALA]LGFVFTL [G27]	92	91	35	0.1	–	–	–	–	–
FMYSDFHF[HPG] [F63]	81	78	83	0.08	–	–	–	–	–
[4-FPHE]MYSDFHFI [F105]	86	78	62	0.08	–	–	–	–	–
F[2-AOC]LSTVLGV [N177]	90	88	46	0.04	–	–	–	–	–
[2-AOC]MYSDFHFI [F95]	82	80	90	0.12	–	–	–	–	–
[3-PYRA]MYSDFHFI [F100]	79	73	104	–	–	Upper 3	improved T cell responses; also recorded: higher homologous and heterologous responses	higher responses compared to WT-peptide vaccination; also recorded: higher IFN-γ responses than WT peptide-vaccinated mice	–
[SOME]MLSTVLGV [N61]	62	54	348	–	–	–	–	–	–
[THR-BZL]MYSDFHFI [F142]	80	77	79	0.08	–	–	–	–	–
[am-phg]MYSDFHF[2-AOC] [F7]	91	90	54	0.13	–	Lower 3	–	–	–
FMYSDFHF[2-AOC] [F19]	87	86	62	0.07	Lower 3	–	–	–	–
[BCA][2-AOC]YSDFHFI [F112]	92	91	86	–	–	–	–	–	–
[3-THI][2-AOC]YSDFHFI [F102]	92	91	96	0.06	Lower 3	Upper 3	–	–	F102 ^*
[NLE]MLSTVLGV [N52]	54	46	341	0.03	–	–	–	–	–
[am-phg][NVA]YSDFHFI [F193]	85	81	–	–	–	–	lowest homologous and heterologous responses	only showed higher responses than WT peptide at a vaccination dose of 25 nmol	–

Substance	FP binding score, percentage inhibition of tracer peptide binding, 4h [1] [%]	FP binding score, percentage inhibition of tracer peptide binding, 24h [1] [%]	Mouse splenocytes (ex vivo assay), Average [2]	DC model: IFN-γ-positive CD8+ T cells, Average [3]	rank by T cell activation, DC model [3]	rank by T cell activation, mouse splenocytes [2]	T cell (IFN-γ) response of vaccinated HLA-A2 tg mice, restimulation not specified or both [4]	IFN-γ ELISpot response after restimulation with WT peptide [4]	response compared with WT peptide control, mouse splenocytes [2]
GILGFV[BUTGLY]TL [G20]	82	79	36	0.07	Lower 3	–	–	–	–
[NVA]MLSTVLG[2-AOC] [N15]	71	65	3	0.07	–	Lower 3	–	–	–
NMLSTVLG[CpALA] [N122]	65	60	128	–	–	–	–	–	–
[THR-BZL]MLSTVLGV [N176]	73	70	355	0.03	–	–	–	–	–
F[2-AOC]YSDFHF[NLE] [F69]	90	89	63	0.08	Lower 3	–	–	–	–
[am-phg]MLSTVLG[2-AOC] [N11]	90	88	3	0.03	Lower 3	Lower 3	–	–	–
FMYSDFHF[CHA] [F49]	88	86	60	0.18	Upper 3	Lower 3	–	–	–
NM[2-AOC]STVLGV [N41]	78	73	5	0.08	Upper 3	–	–	–	–
N[2-AOC]LSTVLGV [N40]	71	67	375	0.06	–	Upper 3	–	–	N40 ^*
FMYSDFHF[CSET] [F54]	82	80	78	0.14	Upper 3	–	–	–	–
[3-THI]MLSTVLG[2-AOC] [N98]	83	79	93	0.04	–	–	–	–	–
[THR-BZL][2-AOC]YSDFHFI [F141]	94	93	67	–	–	–	–	–	–
[2-AOC]MLSTVLGV [N39]	68	63	334	0.05	–	–	–	–	–
[4-FPHE][2-AOC]LSTVLGV [N95]	92	90	3	0.07	–	–	–	–	–
F[2-AOC]YSDFHF[CHA] [F48]	93	92	61	0.11	–	–	–	–	–
[CSET][2-AOC]YSDFHFI [F118]	95	93	81	–	–	–	–	–	–
[3-PYRA]MLSTVLGV [N43]	47	41	108	0.06	–	–	–	–	–
[3-PYRA]MLSTVLG[2-AOC] [N8]	85	82	1	0.01	Lower 3	Lower 3	–	–	–

Source: paper PMC4917206, “Chemical Modification of Influenza CD8+ T-Cell Epitopes Enhances Their Immunogenicity Regardless of Immunodominance” (PLoS ONE, 2016)
